ChEMBL document CHEMBL4414544, “Dihydropyrimidine-2-thiones as Eg5 inhibitors and L-type calcium channel blockers: potential antitumour dual agents” (Medchemcomm, 2019)
Active and inactive are the calls of the source. The rule behind the calls is not given here.

What was measured:
Aorta [1] = experiment: Vasodilating activity in Wistar rat aortic rings assessed as reduction in phenylephrine-induced contractions; assay type: functional, tissue-based
Aorta [2] = experiment: Vasodilating activity in Wistar rat aortic rings assessed as reduction in phenylephrine-induced contractions relative to control; assay type: functional
Aorta [3] = experiment: Vasodilating activity in Wistar rat aortic rings assessed as reduction in KCl-induced contractions; assay type: functional, tissue-based
Aorta [4] = experiment: Vasodilating activity in Wistar rat aortic rings assessed as reduction in KCl-induced contractions relative to control; assay type: functional
MM1.S = experiment: Antiproliferative activity against human MM1S cells incubated for 72 hrs by MTT assay; assay type: functional, cell-based
A549 = experiment: Antiproliferative activity against human A549 cells incubated for 72 hrs by MTT assay; assay type: functional, cell-based; details: A549, 72 h
HCT-116 = experiment: Antiproliferative activity against human HCT116 cells incubated for 72 hrs by MTT assay; assay type: functional, cell-based; details: HCT-116, 72 h
MCF7 = experiment: Antiproliferative activity against human MCF7 cells incubated for 72 hrs by MTT assay; assay type: functional, cell-based; details: MCF7, 72 h
[5] = Cytotoxicity against human MSC assessed as reduction in cell viability incubated for 72 hrs by MTT assay; assay type: ADME
[6] = molecular target: T1, Kinesin-like protein KIF11 (Homo sapiens) (UniProt P52732); experiment: Inhibition of Eg5 in human MCF7 cells assessed as increase in monopolar spindle formation at 100 uM incubated for 24 hrs by DAPI staining based confocal microscopic method; assay type: cell-based
T1 sequence (whole entry): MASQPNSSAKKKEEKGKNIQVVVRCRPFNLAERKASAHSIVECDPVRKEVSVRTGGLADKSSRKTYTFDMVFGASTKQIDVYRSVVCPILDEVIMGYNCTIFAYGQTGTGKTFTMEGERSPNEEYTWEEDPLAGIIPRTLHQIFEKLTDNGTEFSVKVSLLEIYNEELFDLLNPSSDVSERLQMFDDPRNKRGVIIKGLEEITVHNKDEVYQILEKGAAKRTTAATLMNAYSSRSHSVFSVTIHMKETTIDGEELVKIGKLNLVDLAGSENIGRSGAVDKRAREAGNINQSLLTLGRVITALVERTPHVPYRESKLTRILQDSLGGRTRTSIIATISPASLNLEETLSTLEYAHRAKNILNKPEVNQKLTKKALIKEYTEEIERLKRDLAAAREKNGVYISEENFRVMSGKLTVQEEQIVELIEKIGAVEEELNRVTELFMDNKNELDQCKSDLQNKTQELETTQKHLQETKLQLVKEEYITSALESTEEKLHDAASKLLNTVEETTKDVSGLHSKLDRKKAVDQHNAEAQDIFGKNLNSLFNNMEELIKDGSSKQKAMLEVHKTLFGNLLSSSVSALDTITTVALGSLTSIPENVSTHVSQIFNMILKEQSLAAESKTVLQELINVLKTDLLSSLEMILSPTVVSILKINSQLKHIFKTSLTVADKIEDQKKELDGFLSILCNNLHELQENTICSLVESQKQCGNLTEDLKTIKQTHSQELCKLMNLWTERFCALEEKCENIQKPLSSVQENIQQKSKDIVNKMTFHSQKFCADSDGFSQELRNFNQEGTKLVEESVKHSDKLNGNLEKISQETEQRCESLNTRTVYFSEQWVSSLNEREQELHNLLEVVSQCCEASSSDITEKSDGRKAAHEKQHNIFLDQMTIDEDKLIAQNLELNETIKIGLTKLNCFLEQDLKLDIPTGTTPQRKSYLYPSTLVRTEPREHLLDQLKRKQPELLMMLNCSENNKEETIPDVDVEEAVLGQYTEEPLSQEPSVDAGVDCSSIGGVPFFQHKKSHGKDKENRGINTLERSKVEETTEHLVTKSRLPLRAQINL

Aorta [7] = experiment: Vasodilating activity in Wistar rat aortic rings assessed as reduction in phenylephrine-induced contractions in presence of Cacl2 in calcium free Krebs medium incubated for 1 hr relative to control; assay type: functional; design: scale not given: the % may be the effect or the level left
[8] = molecular target: T2, Voltage-gated L-type calcium channel (Rattus norvegicus, UniProt P22002+Q02485+P27732); experiment: Inhibition of L-type calcium channel in Wistar rat aortic rings assessed as reduction in (-)-Bay K8644-induced contractions at 10^-4 M measured after 20 mins; details: 100 µM
[9] = molecular target: T2, Voltage-gated L-type calcium channel; experiment: Inhibition of L-type calcium channel in Wistar rat aortic rings assessed as reduction in (-)-Bay K8644-induced contractions at 10^-5 M measured after 20 mins; details: 10 µM

Row | SMILES | IC50 (Aorta [1]) | IC50 (Aorta [3]) | IC50 (MM1.S) | IC50 (A549) | IC50 (HCT-116) | IC50 (MCF7) | inhibition [6] | inhibition (INH) [8] | inhibition (INH) [9] | Emax (Aorta [2]) | Emax (Aorta [4]) | IC50 [5] | Activity (Aorta [7])
1 | CCOC(=O)C1=C(C)NC(=S)NC1c1ccc2cn[nH]c2c1 (racemic) | 42 µM | 36 µM | 63.1 µM | > 100 µM | > 100 µM | > 100 µM | – | – | – | 61.2% | 48.5% | > 100 µM | –
2 | CCOC(=O)C1=C(C)NC(=S)NC1c1ccc(O)c(OC)c1 (racemic) | 29 µM | 91 µM | > 100 µM | > 100 µM | > 100 µM | > 100 µM | Active | – | – | 78% | 78.3% | – | –
3 | COC(=O)C1=C(C)NC(C)=C(C(=O)OC)C1c1ccccc1[N+](=O)[O-] [NIFEDIPINE] | 0.019 µM | 0.0029 µM | 57.9 µM | > 100 µM | > 100 µM | > 100 µM | – | – | – | 75.1% | 98.7% | > 100 µM | –
4 | CCOC(=O)C1=C(C)NC(=S)NC1c1ccc(OC)c(O)c1 (racemic) | 25 µM | 37 µM | > 100 µM | > 100 µM | > 100 µM | > 100 µM | – | – | – | 88.4% | 77% | – | –
5 | CCOC(=O)C1=C(C)NC(=S)NC1c1cccnc1 (racemic) | 46 µM | 52 µM | > 100 µM | > 100 µM | > 100 µM | > 100 µM | – | – | – | 80.9% | 78.4% | – | –
6 | CCOC(=O)C1=C(C)NC(=S)NC1c1ccc(O)c([N+](=O)[O-])c1 (racemic) | 26 µM | 38 µM | > 100 µM | > 100 µM | > 100 µM | > 100 µM | – | – | – | 62.4% | 57.1% | – | –

Continued by falling IC50 (Aorta [1]), values first:

Row | IC50 (Aorta [1]) | IC50 (Aorta [3]) | IC50 (MM1.S) | IC50 (A549) | IC50 (HCT-116) | IC50 (MCF7) | inhibition [6] | inhibition (INH) [8] | inhibition (INH) [9] | SMILES | Emax (Aorta [2]) | Emax (Aorta [4]) | IC50 [5] | Activity (Aorta [7])
7 | 6.9 µM | 1.2 µM | 8.7 µM | > 100 µM | 9 µM | 73 µM | – | Active | – | CCOC(=O)C1=C(C)NC(=S)NC1c1cccc(O)c1 (racemic) [MONASTROL] | 95.2% | 89.5% | – | 81.8%
8 | 5.6 µM | 12 µM | > 100 µM | > 100 µM | > 100 µM | > 100 µM | Active | Active | – | CCOC(=O)C1=C(C)NC(=S)NC1c1ccc2c(c1)OCCO2 (racemic) | 83.3% | 71.7% | > 100 µM | 41.8%
9 | 3.2 µM | 16 µM | 96.5 µM | 44.9 µM | 58 µM | 32.2 µM | Active | Active | Active | CCOC(=O)C1=C(C)N=C(S)NC1c1cccc([N+](=O)[O-])c1 (racemic) | 84.9% | 95.4% | > 100 µM | 18.1%
